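All cell lines were grown in 96-well plates and treated with compound for 48 hours. At the TGI there is no net growth.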 Bounds are passed on as bounds.

Some test systems named below: SK-MEL-2 melanoma; UACC-62 melanoma; DU-145 prostate; HL-60(TB) leukemia; SR leukemia; MDA-MB-435; LOX IMVI melanoma; KM12 colon; SK-MEL-28 melanoma; NCI-H522 lung.
What all share (experiment): NCI tumour cell line growth inhibition, 48 h

Consider `O=C1CC2(CCC(O)(c3cccs3)C(C(=O)c3cccs3)C2)C(=O)c2ccccc2N1` (configuration not stated), for which the TGI with SK-MEL-2 melanoma, in the experiment on UACC-62 melanoma, in the experiment on DU-145 prostate, in the experiment with HL-60(TB) leukemia, with SR leukemia and in the experiment on MDA-MB-435 was more than 100 µM in each case. In addition, the TGI in the experiment on LOX IMVI melanoma was more than 100 µM.

For `C1=CC(=[N+]2N=C(c3ccccc3)CC2c2ccccc2)C=CC1=C1SC(c2ccccc2)(c2ccccc2)c2ccccc21` (configuration not stated), the TGI with KM12 colon, with SK-MEL-2 melanoma, in the experiment with UACC-62 melanoma, in the experiment with DU-145 prostate, in the experiment with HL-60(TB) leukemia and in the experiment on SK-MEL-28 melanoma was more than 100 µM each time. Also, the TGI in the experiment on SR leukemia and with MDA-MB-435 was more than 100 µM in each case.

Consider `N#Cc1c(N)nc2c(c1-c1ccc(Br)cc1)CSc1ccccc1-2`, for which the TGI in the experiment with KM12 colon was more than 100 µM; in the experiment with SK-MEL-2 melanoma, more than 100 µM; in the experiment with UACC-62 melanoma, 78.1 µM; in the experiment on DU-145 prostate, more than 100 µM; with HL-60(TB) leukemia, 98.5 µM; in the experiment with SK-MEL-28 melanoma it was more than 100 µM. Moreover, the TGI was more than 100 µM in the experiment with SR leukemia, 77.3 µM in the experiment on MDA-MB-435 and more than 100 µM with LOX IMVI melanoma.

`Nc1ccc(Oc2ccc(C34CC5CC(C3)CC(c3ccc(Oc6ccc(N)cc6)cc3)(C5)C4)cc2)cc1`: the TGI with KM12 colon is more than 45.4 µM; with SK-MEL-2 melanoma it was 36.2 µM; in the experiment with UACC-62 melanoma it was 27.3 µM; with NCI-H522 lung it was 38.7 µM; in the experiment on DU-145 prostate it was 33.3 µM; with HL-60(TB) leukemia, more than 66.9 µM. Further, the TGI is more than 72.1 µM with SK-MEL-28 melanoma, more than 100 µM in the experiment on SR leukemia, 40.7 µM in the experiment on MDA-MB-435 and 20.1 µM in the experiment with LOX IMVI melanoma.

For `CCOC(=O)C(=O)NCCCN1CCOCC1`, the TGI with KM12 colon, with SK-MEL-2 melanoma, in the experiment on UACC-62 melanoma, in the experiment on NCI-H522 lung, in the experiment with HL-60(TB) leukemia and in the experiment with SK-MEL-28 melanoma was more than 100 µM each time. This compound displayed a TGI with LOX IMVI melanoma of more than 100 µM.

On to `O=c1c2ccccc2[nH]c(=S)n1-c1ccc(N=Nc2cccc3cc(O)ccc23)cc1`, for which the TGI in the experiment on KM12 colon, with SK-MEL-2 melanoma, with UACC-62 melanoma, with NCI-H522 lung, with DU-145 prostate and in the experiment with HL-60(TB) leukemia was more than 100 µM throughout. For the same compound, the TGI in the experiment with SK-MEL-28 melanoma, in the experiment on SR leukemia, in the experiment with MDA-MB-435 and with LOX IMVI melanoma was more than 100 µM in each case.

As to `O=[N+]([O-])c1ccc2c(c1)nc(Cc1ccc(Cl)cc1)n2C[C@@H]1CCCN2CCCCC12` (some centres not stated), the TGI in the experiment with KM12 colon turned out to be 27.9 µM; in the experiment with SK-MEL-2 melanoma, 30.7 µM; in the experiment on UACC-62 melanoma it was 28.7 µM; in the experiment with NCI-H522 lung, 27.4 µM; with DU-145 prostate, 38.1 µM; in the experiment on HL-60(TB) leukemia it was 66.1 µM. Further, the TGI in the experiment on SK-MEL-28 melanoma was 30.1 µM; in the experiment with SR leukemia, more than 100 µM; in the experiment on MDA-MB-435, 28.3 µM; in the experiment on LOX IMVI melanoma, 28.7 µM.

Turning to `Cc1cc(=O)[nH]c(/N=C(\N)Nc2ccc(Cl)cc2)n1`, the TGI with KM12 colon, in the experiment with SK-MEL-2 melanoma, in the experiment on UACC-62 melanoma, with NCI-H522 lung, in the experiment on DU-145 prostate and in the experiment on HL-60(TB) leukemia was more than 100 µM in each case. Moreover, the TGI in the experiment on SK-MEL-28 melanoma, with SR leukemia, in the experiment on MDA-MB-435 and in the experiment on LOX IMVI melanoma was more than 100 µM in each case.

For the compound `O=c1[nH]c(Nc2ccc(Cl)cc2)nc2nc[nH]c12`, the TGI in the experiment with KM12 colon, in the experiment on SK-MEL-2 melanoma, in the experiment on UACC-62 melanoma, with NCI-H522 lung, with DU-145 prostate and with HL-60(TB) leukemia was more than 100 µM in each case. In addition, the TGI in the experiment with SK-MEL-28 melanoma, with SR leukemia, with MDA-MB-435 and in the experiment on LOX IMVI melanoma was more than 100 µM throughout.

As for `COC(=O)C1=C(O)CCCC(CCC(C)=O)=C1`, the TGI was more than 100 µM in the experiment on KM12 colon; more than 100 µM with SK-MEL-2 melanoma; more than 100 µM in the experiment with UACC-62 melanoma; 31.1 µM in the experiment with NCI-H522 lung; more than 100 µM in the experiment on DU-145 prostate; 43.8 µM in the experiment with HL-60(TB) leukemia. For the same compound, the TGI with SK-MEL-28 melanoma is more than 100 µM; in the experiment on SR leukemia it was 66 µM; in the experiment with MDA-MB-435, more than 100 µM; in the experiment with LOX IMVI melanoma, more than 100 µM.

With `COc1ccc(C2c3cc4c(cc3OC(O)(CO)C2C(=O)O)OCO4)cc1` (configuration not stated) (tested in a mixture with another compound), the TGI was found to be 67.2 µM in the experiment with KM12 colon; 71.8 µM with SK-MEL-2 melanoma; 36.4 µM with UACC-62 melanoma; 41.7 µM in the experiment with HL-60(TB) leukemia; 43.8 µM in the experiment with SK-MEL-28 melanoma; 56.2 µM in the experiment with SR leukemia. Also, in the experiment with LOX IMVI melanoma, the TGI was found to be 30.1 µM.

Consider `O=S(=O)(O)c1cc(N=[N+]([O-])c2cc(S(=O)(=O)O)c3ccccc3c2)cc2ccccc12`, for which the TGI in the experiment with KM12 colon is more than 100 µM; with SK-MEL-2 melanoma, 66.1 µM; with UACC-62 melanoma, more than 100 µM; with NCI-H522 lung, 65.9 µM; in the experiment on DU-145 prostate, 40.1 µM; in the experiment on HL-60(TB) leukemia, more than 100 µM. The TGI in the experiment on SK-MEL-28 melanoma was more than 100 µM; in the experiment on SR leukemia it was more than 100 µM; in the experiment with MDA-MB-435 it was more than 100 µM; in the experiment with LOX IMVI melanoma, 60.6 µM.

Regarding `COC(CN(C=O)[C@@H](c1ccc(Cl)cc1)c1cc2ccccc2o1)OC`, the TGI was found to be 31.4 µM in the experiment with KM12 colon; 31.9 µM in the experiment with SK-MEL-2 melanoma; 29.7 µM in the experiment on UACC-62 melanoma; 29.2 µM with NCI-H522 lung; 30.9 µM with DU-145 prostate; 46.3 µM in the experiment on HL-60(TB) leukemia. In addition, the TGI in the experiment on SK-MEL-28 melanoma came out at 34.5 µM; in the experiment with MDA-MB-435, 35.5 µM; in the experiment on LOX IMVI melanoma it was 34.5 µM.

As for `Cc1ccccc1NC(=O)CC(=O)N1N=C(N2c3ccccc3Sc3ccccc32)CC1c1ccccc1` (configuration not stated), the TGI in the experiment on KM12 colon, in the experiment with UACC-62 melanoma, in the experiment on SK-MEL-28 melanoma, in the experiment on SR leukemia and in the experiment with LOX IMVI melanoma was more than 100 µM each time.
